Measured values from patent US10577363B2, “Substituted piperidine compounds” (EPIZYME, INC., priority 2014, dated 2020).
Each block holds one compound with its values, some of them ahead of it.

Legend:
SMYD3 [1] = target: T1, SMYD3 (Homo sapiens (Human), UniProt Q9H7B4); assay: SMYD3 biochemical assay (SPA, 3H-SAM methylation of MEKK2 protein substrate)
How it was run: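 Native full-length human SMYD3 (E. coli-expressed, tags removed) was preincubated with compound for 30 min at room temperature in 25 mM Tris-Cl pH 8.0, 1 mM TCEP, 0.005% BSG, 0.005% Tween 20. Reaction was started with 3H-SAM plus GST-MEKK2, quenched with 100 uM unlabeled SAM, and read by SPA scintillation counting.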

SMYD3 [2] = target: T1, SMYD3; assay: SMYD3 cell assay (Trimethyl-MEKK2 In-Cell Western in 293T/17 cells); assay type: cell-based
How it was run: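 In-Cell Western ratio of trimethyl-Lys260 MEKK2 to anti-flag signal; percent inhibition from DMSO and maximum-inhibition controls, IC50 by non-linear regression, triplicates.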

[3] = Table 2A, read-out: SMYD3 Biochem IC50
[4] = Table 2A, read-out: SMYD3 Cell IC50
[5] = average of n = 1 to n = 50, read-out: SMYD3 Biochem IC50
[6] = average of n = 1 to n = 50, read-out: SMYD3 Cell IC50
[7] = read-out: SMYD3 Biochem IC50 (μM)*
[8] = 293T/17 cells, read-out: SMYD3 Cell IC50 (μM)*

T1 sequence (Q9H7B4 whole entry): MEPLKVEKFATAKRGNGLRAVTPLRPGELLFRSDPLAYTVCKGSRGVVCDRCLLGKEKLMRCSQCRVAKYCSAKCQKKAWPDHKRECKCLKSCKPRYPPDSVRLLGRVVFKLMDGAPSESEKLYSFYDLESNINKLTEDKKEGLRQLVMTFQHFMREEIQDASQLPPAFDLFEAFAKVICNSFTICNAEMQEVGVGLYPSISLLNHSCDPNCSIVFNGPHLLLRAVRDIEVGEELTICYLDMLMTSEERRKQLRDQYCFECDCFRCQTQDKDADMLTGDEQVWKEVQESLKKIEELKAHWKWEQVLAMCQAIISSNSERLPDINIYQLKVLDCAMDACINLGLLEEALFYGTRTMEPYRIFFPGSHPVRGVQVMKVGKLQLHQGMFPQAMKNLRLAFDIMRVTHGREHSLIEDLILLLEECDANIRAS

IC50 (SMYD3 [1]; [3]): 0.0246 µM | IC50 (SMYD3 [2]; [4]): 0.284 µM
Structure (SMILES): C[C@H]1CNCCN1S(=O)(=O)N1CC[C@H](NC(=O)c2cc(C3CC3)on2)C[C@@H]1C [compound 624, 5-cyclopropyl-N-((2S,4S)-2-methyl-1-(((S)-2-methylpiperazin-1-yl)sulfonyl)piperidin-4-yl)isoxazole-3-carboxamide]

IC50 (SMYD3 [1]; [5]): 0.273 µM | IC50 (SMYD3 [2]; [6]): 1.15 µM
Structure (SMILES): CC[C@@H]1CN(S(=O)(=O)N2CC[C@H](NC(=O)c3cc(C4CC4)on3)C[C@@H]2C)CCN1C [compound 711, 5-cyclopropyl-N-((2S,4S)-1-(((R)-3-ethyl-4-methylpiperazin-1-yl)sulfonyl)-2-methylpiperidin-4-yl)isoxazole-3-carboxamide]

IC50 (SMYD3 [1]; [5]): 0.0348 µM | IC50 (SMYD3 [2]; [6]): 0.258 µM
Structure (SMILES): C[C@H]1C[C@@H](NC(=O)c2cc(C3CC3)on2)CCN1S(=O)(=O)N1CCCN(C)CC1 [compound 639, 5-cyclopropyl-N-((2S,4S)-2-methyl-1-((4-methyl-1,4-diazepan-1-yl)sulfonyl)piperidin-4-yl)isoxazole-3-carboxamide]

IC50 (SMYD3 [1]; [3]): 0.0035 µM | IC50 (SMYD3 [2]; [4]): 0.0704 µM
Structure (SMILES): COCCN1CCC(CS(=O)(=O)N2CC[C@H](NC(=O)c3cc(C4CC4)on3)C[C@@H]2C)CC1 [compound 554, 5-cyclopropyl-N-((2S,4S)-1-(((1-(2-methoxyethyl)piperidin-4-yl)methyl)sulfonyl)-2-methylpiperidin-4-yl)isoxazole-3-carboxamide]

IC50 (SMYD3 [1]; [7]): 0.633 µM | IC50 (SMYD3 [2]; read-out: SMYD3 Cell IC50 (μM)*): 2.91 µM
Structure (SMILES): C[C@@H]1CC(NC(=O)c2cc(C3CC3)on2)CCN1S(=O)(=O)CCN (stereo partly drawn) [compound 77, N-((2R)-1-((2-aminoethyl)sulfonyl)-2-methylpiperidin-4-yl)-5-cyclopropylisoxazole-3-carboxamide]

IC50 (SMYD3 [1]; [3]): 0.0061 µM | IC50 (SMYD3 [2]; [4]): 0.113 µM
Structure (SMILES): C[C@H]1CN(S(=O)(=O)N2CCC(N)CC2)CC[C@H]1NC(=O)c1cc(C2CC2)on1 [compound 567, N-((3S,4R)-1-((4-aminopiperidin-1-yl)sulfonyl)-3-methylpiperidin-4-yl)-5-cyclopropylisoxazole-3-carboxamide]

IC50 (SMYD3 [1]; [7]): 3.09 µM | IC50 (SMYD3 [2]; [8]): 7.83 µM
Structure (SMILES): C[C@@H]1C[C@H](NC(=O)c2cc(C3CC3)on2)CCN1S(=O)(=O)c1ccccc1 [compound 351, 5-cyclopropyl-N-((2R,4R)-2-methyl-1-(phenylsulfonyl)piperidin-4-yl)isoxazole-3-carboxamide]

IC50 (SMYD3 [1]; [5]): 0.418 µM | IC50 (SMYD3 [2]; [6]): 1.33 µM
Structure (SMILES): C[C@H]1CN(S(=O)(=O)N2CCN(C)CC2)[C@@H](C)C[C@H]1NC(=O)c1cc(C2CC2)on1 [compound 731, 5-cyclopropyl-N-((2S,4R,5S)-2,5-dimethyl-1-((4-methylpiperazin-1-yl)sulfonyl)piperidin-4-yl)isoxazole-3-carboxamide]

IC50 (SMYD3 [1]; read-out: SMYD3 Biochem IC50*): 0.0579 µM | IC50 (SMYD3 [2]; read-out: SMYD3 Cell IC50*): 0.583 µM
Structure (SMILES): CC[C@H]1C[C@@H](NC(=O)c2cc(C3CC3)on2)CCN1S(=O)(=O)CC1CCN(C)CC1 [compound 954, 5-cyclopropyl-N-((2S,4S)-2-ethyl-1-(((1-methylpiperidin-4-yl)methyl)sulfonyl)piperidin-4-yl)isoxazole-3-carboxamide]

More lines, now with the values behind:

Structure (SMILES): O=C(N[C@H]1C[C@H]2CC[C@@H](C1)N2S(=O)(=O)[C@H]1CC[C@H](NCCO)CC1)c1cc(C2CC2)on1 [compound 768, 5-cyclopropyl-N-((1R,3R,5S)-8-(((1R,4R)-4-((2-hydroxyethyl)amino)cyclohexyl)sulfonyl)-8-azabicyclo[3.2.1]octan-3-yl)isoxazole-3-carboxamide]
IC50 (SMYD3 [1]; read-out: SMYD3 Biochem IC50*): 0.00071 µM | IC50 (SMYD3 [2]; read-out: SMYD3 Cell IC50*): 0.0347 µM

Structure (SMILES): O=C(N[C@H]1C[C@H]2CC[C@@H](C1)N2S(=O)(=O)N1CC2CCC(C1)N2CCc1ccccc1)c1cc(C2CC2)on1 [compound 867, 5-cyclopropyl-N-((1R,3r,5S)-8-((8-phenethyl-3,8-diazabicyclo[3.2.1]octan-3-yl)sulfonyl)-8-azabicyclo[3.2.1]octan-3-yl)isoxazole-3-carboxamide]
IC50 (SMYD3 [1]; read-out: SMYD3 Biochem IC50*): 0.00867 µM | IC50 (SMYD3 [2]; read-out: SMYD3 Cell IC50*): 0.844 µM

Structure (SMILES): CCc1cc(C(=O)N[C@H]2CCN(S(=O)(=O)c3ccc(C(C)(C)N)cc3)[C@@H](C)C2)no1 [compound 811, N-((2S,4S)-1-((4-(2-aminopropan-2-yl)phenyl)sulfonyl)-2-methylpiperidin-4-yl)-5-ethylisoxazole-3-carboxamide]
IC50 (SMYD3 [1]; read-out: SMYD3 Biochem IC50*): 0.00258 µM | IC50 (SMYD3 [2]; read-out: SMYD3 Cell IC50*): 0.0336 µM

Structure (SMILES): CCc1cc(C(=O)N[C@H]2C[C@H]3CC[C@@H](C2)N3S(=O)(=O)[C@H]2CC[C@@H](NCCO)CC2)no1 [compound 833, 5-ethyl-N-((1R,3R,5S)-8-(((1s,4S)-4-((2-hydroxyethyl)amino)cyclohexyl)sulfonyl)-8-azabicyclo[3.2.1]octan-3-yl)isoxazole-3-carboxamide]
IC50 (SMYD3 [1]; read-out: SMYD3 Biochem IC50*): 0.00447 µM | IC50 (SMYD3 [2]; read-out: SMYD3 Cell IC50*): 0.0722 µM

Structure (SMILES): O=C(N[C@H]1C[C@H]2CC[C@@H](C1)N2S(=O)(=O)[C@H]1CC[C@@H](NCCO)CC1)c1cc(C2CC2)on1 [compound 767, 5-cyclopropyl-N-((1R,3R,5S)-8-(((1S,4S)-4-((2-hydroxyethyl)amino)cyclohexyl)sulfonyl)-8-azabicyclo[3.2.1]octan-3-yl)isoxazole-3-carboxamide]
IC50 (SMYD3 [1]; read-out: SMYD3 Biochem IC50*): 0.0004 µM | IC50 (SMYD3 [2]; read-out: SMYD3 Cell IC50*): 0.0194 µM

Structure (SMILES): CC(C)c1cc(C(=O)N[C@H]2C[C@H]3CC[C@@H](C2)N3S(=O)(=O)[C@H]2CC[C@H](N)CC2)no1 [compound 871, N-((1R,3R,5S)-8-(((1r,4R)-4-aminocyclohexyl)sulfonyl)-8-azabicyclo[3.2.1]octan-3-yl)-5-isopropylisoxazole-3-carboxamide]
IC50 (SMYD3 [1]; read-out: SMYD3 Biochem IC50*): 0.00938 µM | IC50 (SMYD3 [2]; read-out: SMYD3 Cell IC50*): 0.0867 µM

Structure (SMILES): O=C(N[C@H]1C[C@H]2CC[C@@H](C1)N2S(=O)(=O)CCN1CCC(OCc2ccccc2)C1)c1cc(C2CC2)on1 (stereo partly drawn) [compound 726, N-((1R,3r,5S)-8-((2-(3-(benzyloxy)pyrrolidin-1-yl)ethyl)sulfonyl)-8-azabicyclo[3.2.1]octan-3-yl)-5-cyclopropylisoxazole-3-carboxamide]
IC50 (SMYD3 [1]; [5]): 0.36 µM | IC50 (SMYD3 [2]; [6]): 2.47 µM

Structure (SMILES): CNC/C=C/S(=O)(=O)N1CCC(NC(=O)c2cc(C3CC3)on2)CC1 [compound 727, (E)-5-cyclopropyl-N-(1-((3-(methylamino)prop-1-en-1-yl)sulfonyl)piperidin-4-yl)isoxazole-3-carboxamide]
IC50 (SMYD3 [1]; [5]): 0.363 µM | IC50 (SMYD3 [2]; [6]): 1.39 µM

Structure (SMILES): CC(=O)Nc1ccc(S(=O)(=O)N2[C@@H]3CC[C@H]2C[C@H](NC(=O)c2cc(C4CC4)on2)C3)cc1 [compound 430, N-((1R,3s,5S)-8-((4-acetamidophenyl)sulfonyl)-8-azabicyclo[3.2.1]octan-3-yl)-5-cyclopropylisoxazole-3-carboxamide]
IC50 (SMYD3 [1]; [7]): 3.66 µM | IC50 (SMYD3 [2]; [8]): 4.52 µM

Structure (SMILES): CN(CCc1ccccc1)C1CCN(S(=O)(=O)N2[C@@H]3CC[C@H]2C[C@@H](NC(=O)c2cc(C4CC4)on2)C3)CC1 [compound 844, 5-cyclopropyl-N-((1R,3r,5S)-8-((4-(methyl(phenethyl)amino)piperidin-1-yl)sulfonyl)-8-azabicyclo[3.2.1]octan-3-yl)isoxazole-3-carboxamide]
IC50 (SMYD3 [1]; read-out: SMYD3 Biochem IC50*): 0.00528 µM | IC50 (SMYD3 [2]; read-out: SMYD3 Cell IC50*): 0.305 µM

Structure (SMILES): COCCN(C)c1ccc(S(=O)(=O)N2CC[C@H](NC(=O)c3cc(C4CC4)on3)C[C@@H]2C)cn1 [compound 412, 5-cyclopropyl-N-((2S,4S)-1-((6-((2-methoxyethyl)(methyl)amino)pyridin-3-yl)sulfonyl)-2-methylpiperidin-4-yl)isoxazole-3-carboxamide]
IC50 (SMYD3 [1]; [7]): 2.12 µM | IC50 (SMYD3 [2]; [8]): 8.22 µM
